Reference: US20220030867A1 (priority 2018, published 2022)

Key:
Fusarium culmorum = test: whole plant or invertebrate; assay type: in vivo, Fusarium culmorum on wheat spikelets cv. Monsun; conditions: in Triticum aestivum, read-out: control of Fusarium culmorum
[1] = test system: Magnaporthe grisea (Pyricularia oryzae); test: whole plant or invertebrate; assay type: in vivo, Magnaporthe grisea on rice leaf segments cv. Ballila; conditions: foliar, read-out: control of Magnaporthe grisea

| Structure (SMILES) | pest or weed control at 200 ppm (Fusarium culmorum) [%] | pest or weed control at 200 ppm [1] [%] | melting point [°C] |
| --- | --- | --- | --- |
| Cc1nc2c(F)cccc2cc1NC(=O)C(C)(Cc1cccc(F)c1)CC(F)(F)F (centres unmarked) [Compound E-8, 4,4,4-trifluoro-N-(8-fluoro-2-methyl-3-quinolyl)-2-[(3-fluorophenyl)methyl]-2-methyl-butanamide] | ≥ 80 | ≥ 80 | – |
| CC(Cc1ccc(F)cc1)(CC(F)(F)F)C(=O)Nc1cnc2c(F)cccc2c1 (centres unmarked) [Compound E-18, 4,4,4-trifluoro-2-[(4-fluorophenyl)methyl]-N-(8-fluoro-3-quinolyl)-2-methyl-butanamide] | – | ≥ 80 | – |
| O=C(Nc1cnc2c(F)cccc2c1)C(Cc1ccccc1)CC(F)(F)Cl (centres unmarked) [Compound E-58, 2-benzyl-4-chloro-4,4-difluoro-N-(8-fluoro-3-quinolyl)butanamide] | ≥ 80 | – | 65 to 70 |
| Cc1c(NC(=O)C(Cc2ccccc2)CC(C)C)cnc2c(F)cccc12 (centres unmarked) [Compound E-19, 2-benzyl-N-(8-fluoro-4-methyl-3-quinolyl)-4-methyl-pentanamide] | ≥ 80 | ≥ 80 | – |
| Cc1nc2c(F)cccc2cc1NC(=O)C(Cc1ccccc1)CC(F)(F)F (centres unmarked) [Compound E-44, 2-benzyl-4,4,4-trifluoro-N-(8-fluoro-2-methyl-3-quinolyl)-butanamide] | ≥ 80 | ≥ 80 | – |
| COC(Cc1ccccc1)(CC(C)C)C(=O)Nc1cnc2c(F)cccc2c1 (centres unmarked) [Compound E-38, 2-benzyl-N-(8-fluoro-3-quinolyl)-2-methoxy-4-methyl-pentanamide] | ≥ 80 | – | 133 to 135 |
| C=C(C)CC(C)(Cc1ccccc1)C(=O)Nc1cnc2c(Br)cccc2c1 (centres unmarked) [Compound E-63, 2-benzyl-N-(8-bromo-3-quinolyl)-2,4-dimethyl-pent-4-enamide] | ≥ 80 | – | 165 to 169 |
| C=C(C)CC(C)(Cc1ccccc1)C(=O)Nc1cnc2c(F)cccc2c1 (centres unmarked) [Compound E-74, 2-benzyl-N-(8-fluoro-3-quinolyl)-2,4-dimethyl-pent-4-enamide] | ≥ 80 | – | 147 to 149 |
| CC(C)(C)C(Cc1ccccc1)C(=O)Nc1cnc2c(F)cccc2c1 (centres unmarked) [Compound E-88, 2-benzyl-N-(8-fluoro-3-quinolyl)-3,3-dimethyl-butanamide] | ≥ 80 | – | 212 to 215 |
| CC(C)=CC(C)(Cc1ccccc1)C(=O)Nc1cnc2c(F)cccc2c1 (centres unmarked) [Compound E-48, 2-benzyl-N-(8-fluoro-3-quinolyl)-2,4-dimethyl-pent-3-enamide] | ≥ 80 | – | 167 to 169 |
| CC(Cc1ccccc1)(CC(F)(F)F)C(=O)Nc1cnc2c(Cl)cccc2c1 (centres unmarked) [Compound E-51, 2-benzyl-N-(8-chloro-3-quinolyl)-4,4,4-trifluoro-2-methyl-butanamide] | ≥ 80 | – | 104 to 106 |
| Cc1nc2c(Cl)cccc2cc1NC(=O)C(C)(Cc1ccccc1)CC(C)C (centres unmarked) [Compound E-13, 2-benzyl-N-(8-chloro-2-methyl-3-quinolyl)-2,4-dimethyl-pentanamide] | – | ≥ 80 | 99 to 100 |
| C=C(C)C[C@](C)(Cc1ccccc1)C(=O)Nc1cnc2c(F)cccc2c1C [Compound F-6, (2R)-2-benzyl-N-(8-fluoro-4-methyl-3-quinolyl)-2,4-dimethyl-pent-4-enamide] | ≥ 80 | ≥ 80 | – |
| C=C(Cl)CC(C)(Cc1ccccc1)C(=O)Nc1cnc2c(F)cccc2c1 (centres unmarked) [Compound E-53, 2-benzyl-4-chloro-N-(8-fluoro-3-quinolyl)-2-methyl-pent-4-enamide] | ≥ 80 | – | 148 to 150 |
| COC(Cc1ccccc1)(CC(C)C)C(=O)Nc1cc2cccc(F)c2nc1C (centres unmarked) [Compound E-37, 2-benzyl-N-(8-fluoro-2-methyl-3-quinolyl)-2-methoxy-4-methyl-pentanamide] | ≥ 80 | – | 92 to 94 |
| Cc1nc2c(Cl)cccc2cc1NC(=O)C(C)(Cc1ccccc1)CC(F)(F)F (centres unmarked) [Compound E-17, 2-benzyl-N-(8-chloro-2-methyl-3-quinolyl)-4,4,4-trifluoro-2-methyl-butanamide] | – | ≥ 80 | 47 to 50 |
| CC#CCC(Cc1ccccc1)C(=O)Nc1cnc2c(F)cccc2c1 (centres unmarked) [Compound E-29, 2-benzyl-N-(8-fluoro-3-quinolyl)hex-4-ynamide] | – | ≥ 80 | 218 to 220 |
| CC(Cc1ccccc1)(CC1(F)CC1)C(=O)Nc1cnc2c(F)cccc2c1 (centres unmarked) [Compound E-25, 2-benzyl-3-(1-fluorocyclopropyl)-N-(8-fluoro-3-quinolyl)-2-methyl-propanamide] | ≥ 80 | – | 162 to 164 |
| C=C(F)CC(C)(Cc1ccccc1)C(=O)Nc1cnc2c(F)cccc2c1 (centres unmarked) [Compound E-71, 2-benzyl-4-fluoro-N-(8-fluoro-3-quinolyl)-2-methyl-pent-4-enamide] | ≥ 80 | – | 132 to 134 |

| Structure (SMILES) | pest or weed control at 200 ppm (Fusarium culmorum) [%] | pest or weed control at 200 ppm [1] [%] | melting point [°C] |
| --- | --- | --- | --- |
| CC(Cc1ccccc1)(CC(F)(F)F)C(=O)Nc1cnc2c(F)c(F)ccc2c1 (centres unmarked) [Compound E-60, 2-benzyl-N-(7,8-difluoro-3-quinolyl)-4,4,4-trifluoro-2-methyl-butanamide] | ≥ 80 | – | 183 to 186 |
| C#CCC(C)(Cc1ccccc1)C(=O)Nc1cnc2c(F)cccc2c1 (centres unmarked) [Compound E-26, 2-benzyl-N-(8-fluoro-3-quinolyl)-2-methyl-pent-4-ynamide] | – | ≥ 80 | 189 to 191 |
| CC(F)(F)CC(C)(Cc1ccccc1)C(=O)Nc1cnc2c(F)cccc2c1 (centres unmarked) [Compound E-68, 2-benzyl-4,4-difluoro-N-(8-fluoro-3-quinolyl)-2-methyl-pentanamide] | ≥ 80 | – | 156 to 158 |
| Cc1nc2c(F)cccc2cc1NC(=O)[C@](C)(Cc1ccccc1)CC(F)(F)F [Compound F-11, (2R)-2-benzyl-4,4,4-trifluoro-N-(8-fluoro-2-methyl-3-quinolyl)-2-methyl-butanamide] | ≥ 80 | ≥ 80 | – |
| CCCCC(C)(Cc1ccccc1)C(=O)Nc1cnc2c(F)cccc2c1 (centres unmarked) [Compound E-27, 2-benzyl-N-(8-fluoro-3-quinolyl)-2-methyl-hexanamide] | – | ≥ 80 | 135 to 137 |
| C=C(C)CC(CC)(Cc1ccccc1)C(=O)Nc1cnc2c(F)cccc2c1 (centres unmarked) [Compound E-46, 2-benzyl-2-ethyl-N-(8-fluoro-3-quinolyl)-4-methyl-pent-4-enamide] | – | ≥ 80 | – |
| CC(C)CC(C)(Cc1ccccc1)C(=O)Nc1cnc2c(F)cccc2c1 (centres unmarked) [Compound E-87, 2-benzyl-N-(8-fluoro-3-quinolyl)-2,4-dimethyl-pentanamide] | ≥ 80 | – | 140 to 142 |
| O=C(Nc1cnc2c(F)cccc2c1)C(Cc1ccccc1)CC(F)(F)F (centres unmarked) [Compound E-82, 2-benzyl-4,4,4-trifluoro-N-(8-fluoro-3-quinolyl)butanamide] | ≥ 80 | – | 161 to 164 |
| COC(C)(Cc1ccccc1)C(=O)Nc1cnc2c(F)cccc2c1 (centres unmarked) [Compound E-43, N-(8-fluoro-3-quinolyl)-2-methoxy-2-methyl-3-phenyl-propanamide] | ≥ 80 | – | 107 to 109 |
| CC1(C[C@](C)(Cc2ccccc2)C(=O)Nc2cnc3c(F)cccc3c2)CC1 [Compound F-9, (2R)-2-benzyl-N-(8-fluoro-3-quinolyl)-2-methyl-3-(1-methylcyclopropyl)propanamide] | ≥ 80 | ≥ 80 | – |
| CC(Cc1ccccc1)(CC(F)(F)F)C(=O)Nc1cnc2c(F)cccc2c1 (centres unmarked) [Compound E-80, 2-benzyl-4,4,4-trifluoro-N-(8-fluoro-3-quinolyl)-2-methyl-butanamide] | ≥ 80 | ≥ 80 | – |
| CC#CCC(C)(Cc1ccccc1)C(=O)Nc1cnc2c(F)cccc2c1 (centres unmarked) [Compound E-30, 2-benzyl-N-(8-fluoro-3-quinolyl)-2-methyl-hex-4-ynamide] | – | ≥ 80 | 136 to 138 |
| Cc1nc2c(F)cccc2cc1NC(=O)[C@@](C)(Cc1ccccc1)CC(F)(F)F [Compound F-12, (2S)-2-benzyl-4,4,4-trifluoro-N-(8-fluoro-2-methyl-3-quinolyl)-2-methyl-butanamide] | ≥ 80 | ≥ 80 | – |
| C=C(C)C[C@](C)(Cc1ccccc1)C(=O)Nc1cc2cccc(F)c2nc1C [Compound F-2, (2R)-2-benzyl-N-(8-fluoro-2-methyl-3-quinolyl)-2,4-dimethyl-pent-4-enamide] | ≥ 80 | ≥ 80 | – |
| CC(Cc1ccccc1)C(=O)Nc1cnc2c(F)cccc2c1 (centres unmarked) [Compound E-31, N-(8-fluoro-3-quinolyl)-2-methyl-3-phenyl-propanamide] | – | – | 188 to 190 |
| C=C(C)C[C@@](C)(Cc1ccccc1)C(=O)Nc1cc2cccc(F)c2nc1C [Compound F-1, (2S)-2-benzyl-N-(8-fluoro-2-methyl-3-quinolyl)-2,4-dimethyl-pent-4-enamide] | ≥ 80 | ≥ 80 | – |
| C/C=C\CC(C)(Cc1ccccc1)C(=O)Nc1cnc2c(F)cccc2c1 (centres unmarked) [Compound E-28, (Z)-2-benzyl-N-(8-fluoro-3-quinolyl)-2-methyl-hex-4-enamide] | ≥ 80 | – | 128 to 130 |
| Cc1cccc2cc(NC(=O)C(C)(Cc3ccccc3)CC(F)(F)F)cnc12 (centres unmarked) [Compound E-59, 2-benzyl-4,4,4-trifluoro-2-methyl-N-(8-methyl-3-quinolyl)-butanamide] | ≥ 80 | – | 123 to 125 |
